Converted amounts (≈) assume the structure as drawn. “And” between values parts separate entries of the source, which are not always exact repeats. Equal values may be shown once.
Key:
Cytotoxicity assay (MTT) = conditions: African green monkey, Vero cell monolayers
Description: (§1) Plates were incubated for 1 h, the supernatant again removed, and 200 µL dimethyl sulfoxide (DMSO) were added to each well to dissolve the formazan crystals for 10 min. Absorbance was measured at 570 nm using an ELISA reader (Thermo Plate, TP-READER, Thermo Fisher Scientific). […] The selectivity index (SI) was calculated as follows: SI (µg/mL) = CC50/MIC[17]. Three independent experiments were performed in triplicate. Controls were performed using 2% (v/v) DMSO only.

in vitro = conditions: human, pH 7.4
Description: (§2) Erythrocytes were collected from three human volunteers in a citrate tube and washed three times (3×) with PBS (pH 7.4). All derivatives were incubated with the PBS-erythrocyte suspension for 3 h at 37 °C. The hemolysis with the release of hemoglobin was quantified by the spectrophotometric reading of the supernatant at 545 nm. Hemolysis less than 10% represented hemocompatibility and non-toxicity against erythrocyte membranes. For the positive control, the human erythrocytes were lysed with 1% (v/v) Triton X-100. The negative control was performed with 1% (v/v) DMSO only (final concentration). […] All methods were carried out in accordance with relevant guidelines and regulations. In addition, informed consent was obtained from all volunteers. Three independent experiments were performed in triplicate.

[1] = test system: MRSA strain BMB9393 biofilm; assay: Biofilm development on polystyrene, crystal violet; assay type: cell-based, Staphylococcus aureus; conditions: 1/4MIC (7b 32 µg/mL, 7c 16 µg/mL); strain BMB9393, 24 h, crystal violet
Description: Biofilms were formed on polystyrene surfaces using the BEC representative, strain BMB9393. […] The same volume of the bacterial culture in TSB-Glu (37 °C/18 h; at 250 rpm) diluted 1/100 in the same broth was added to the wells. After incubation (37 °C/24 h), supernatants were gently removed, rinsed with distilled water, and treated with crystal violet solution as described. […] Eight independent tests with three replicates each were performed. Controls were inoculated with the same bacterial inoculum but using only TSB-Glu with 2% (v/v) DMSO, final concentration.

[2] = test system: MRSA strain CR15-071 (USA100) cells persistent to vancomycin; assay: Vancomycin-persistent cells, high bacterial load on TSA plates; assay type: cell-based, Staphylococcus aureus; conditions: 1MIC derivative (128 µg/mL) plus vancomycin 4MIC (8 µg/mL), ~10^9 CFU/ml
Description: For this test, we choose the MRSA strain CR15-071 representative of the ST5-SCCmecII lineage (NY/Japan-USA100 clone), since this MRSA has replaced the ST239-SCCmecIII (the Brazilian clone) in this country, and is now the most frequent MRSA lineage in Brazilian hospitals. […]. The plates were incubated at 37 °C/24 h before being examined. […]. Bacterial growth was determined by removing persistent cells from the plates and determining UFC/ml. Controls were also performed using 2% (v/v) DMSO only. Three independent experiments were performed in triplicate.

Vero cell line = assay: Cytotoxicity assay (MTT); conditions: Vero cells, 24 h, MTT
Description: as §1

human erythrocytes = assay: Hemocompatibility assay; conditions: highest concentration evaluated (300 µg/mL), 3 h at 37 °C
Description: as §2

| Structure (SMILES) | CC50 at 24 h (Cytotoxicity assay (MTT)) | hemolysis at 3 h, 300 µg/mL (in vitro) | Reduction of accumulated biofilm matrix [1] | Reduction in the total of vancomycin-persistent cells [2] | CC50 (Vero cell line) | Hemolysis, maximum values (human erythrocytes) |
| --- | --- | --- | --- | --- | --- | --- |
| CCOCNC1=CC(=O)c2ccccc2C1=O [7b, 2-(ethoxymethyl)-amino-1,4-naphthoquinone] | 219.9 ± 1.87 µg/mL (≈ 951 µM) | 2.7 ± 0.3% | 87.4% ± 1.9% and 88% | complete inhibition of persistent cells | – | – |
| C#CCOCNC1=CC(=O)c2ccccc2C1=O [7c, 2-(propynyloxymethyl)-amino-1,4-naphthoquinone] | – | – | 75.6% ± 3.7% and 75% | – | 20.15 ± 2.11 µg/mL (≈ 83.5 µM) | 1.5 ± 0.5% |
